According to ChEMBL document CHEMBL5042504 (J Med Chem, 2022):
pIC50: −log10 of the molar value.

Assays:
[1] = biological target: Histone deacetylase 2 (Homo sapiens, UniProt Q92769); assay: Inhibition of human recombinant HDAC2 using Boc-Lys(acetyl)-AMC substrate incubated for 2 hrs by fluorescence based assay
[2] = biological target: T1, Protein deacetylase HDAC6 (Homo sapiens, UniProt Q9UBN7); assay: Inhibition of human recombinant HDAC6 using Boc-Lys(acetyl)-AMC substrate incubated for 2 hrs by fluorescence based assay
T1 sequence (Q9UBN7 whole entry): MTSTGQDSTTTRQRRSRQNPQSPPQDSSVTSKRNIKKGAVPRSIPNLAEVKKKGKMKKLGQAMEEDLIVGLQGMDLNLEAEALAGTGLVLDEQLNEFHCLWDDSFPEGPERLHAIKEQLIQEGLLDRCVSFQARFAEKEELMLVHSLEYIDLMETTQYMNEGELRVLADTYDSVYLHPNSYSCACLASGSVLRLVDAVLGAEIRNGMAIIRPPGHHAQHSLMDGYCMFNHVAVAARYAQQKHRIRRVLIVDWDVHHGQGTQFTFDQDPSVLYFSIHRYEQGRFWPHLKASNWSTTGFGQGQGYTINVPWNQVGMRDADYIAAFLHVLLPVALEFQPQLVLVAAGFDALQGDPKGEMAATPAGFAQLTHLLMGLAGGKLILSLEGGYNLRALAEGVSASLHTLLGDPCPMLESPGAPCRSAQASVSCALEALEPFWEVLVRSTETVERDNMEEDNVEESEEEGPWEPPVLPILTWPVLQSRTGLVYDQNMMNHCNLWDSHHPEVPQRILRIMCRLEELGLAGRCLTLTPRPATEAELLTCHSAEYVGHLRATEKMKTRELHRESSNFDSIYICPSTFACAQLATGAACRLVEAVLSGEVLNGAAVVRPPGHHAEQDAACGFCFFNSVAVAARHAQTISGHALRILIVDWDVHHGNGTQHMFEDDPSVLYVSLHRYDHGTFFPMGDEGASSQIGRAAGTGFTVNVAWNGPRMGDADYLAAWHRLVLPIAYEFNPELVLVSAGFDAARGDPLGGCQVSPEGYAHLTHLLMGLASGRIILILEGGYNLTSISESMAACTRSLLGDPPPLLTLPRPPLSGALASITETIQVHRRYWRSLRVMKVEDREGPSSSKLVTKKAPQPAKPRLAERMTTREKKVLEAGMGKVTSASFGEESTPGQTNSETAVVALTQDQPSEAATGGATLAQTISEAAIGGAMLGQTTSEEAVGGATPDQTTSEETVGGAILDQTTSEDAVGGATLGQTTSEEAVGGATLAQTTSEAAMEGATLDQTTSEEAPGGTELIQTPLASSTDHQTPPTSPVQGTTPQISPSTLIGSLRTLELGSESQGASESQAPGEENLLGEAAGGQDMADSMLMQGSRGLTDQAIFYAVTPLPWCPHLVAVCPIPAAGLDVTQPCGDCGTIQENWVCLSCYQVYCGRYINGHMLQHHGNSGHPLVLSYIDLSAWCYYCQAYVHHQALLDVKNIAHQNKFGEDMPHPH

[3] = test system: MV4-11; assay: cells; conditions: Homo sapiens, MV4-11, 48 h
Description: Antiproliferative activity against human MV4-11 AML cells assessed as cell viability measured after 48 hrs by multiplate reader method

[4] = biological target: Histone deacetylase 3 (Homo sapiens, UniProt O15379); assay: Inhibition of human recombinant HDAC3 using Boc-Lys(acetyl)-AMC substrate incubated for 2 hrs by fluorescence based assay
[5] = biological target: Histone deacetylase 1 (Homo sapiens, UniProt Q13547); assay: Inhibition of human recombinant HDAC1 using Boc-Lys(acetyl)-AMC substrate incubated for 2 hrs by fluorescence based assay
[6] = AUC (0 to infinity) in CD-1 mouse at 20 mg/kg, po measured upto 24 hrs; assay type: ADME, organism-based; design: route oral, dose 20 mg/kg, time <=24; conditions: in vivo
[7] = Oral bioavailability in CD-1 mouse at 20 mg/kg measured upto 24 hrs; assay type: ADME, organism-based; conditions: in vivo
[8] = Cmax in CD-1 mouse at 20 mg/kg, po measured upto 24 hrs; assay type: ADME, organism-based; design: route oral, dose 20 mg/kg, time <=24; conditions: mouse, in vivo, 24 h

Chain of Histone deacetylase 3 (O15379 whole entry): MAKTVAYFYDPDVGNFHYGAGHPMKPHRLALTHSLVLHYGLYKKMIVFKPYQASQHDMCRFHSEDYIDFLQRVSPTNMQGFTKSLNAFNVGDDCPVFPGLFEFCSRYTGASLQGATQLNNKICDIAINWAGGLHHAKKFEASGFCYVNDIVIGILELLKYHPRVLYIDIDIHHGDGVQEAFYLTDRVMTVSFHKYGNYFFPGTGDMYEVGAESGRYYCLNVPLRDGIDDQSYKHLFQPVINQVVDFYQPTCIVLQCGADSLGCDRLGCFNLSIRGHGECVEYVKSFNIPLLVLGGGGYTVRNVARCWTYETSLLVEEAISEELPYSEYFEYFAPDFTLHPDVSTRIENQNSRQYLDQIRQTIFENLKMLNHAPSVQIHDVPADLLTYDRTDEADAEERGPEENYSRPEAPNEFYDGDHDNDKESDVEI
Chain of Histone deacetylase 2 (Q92769 whole entry): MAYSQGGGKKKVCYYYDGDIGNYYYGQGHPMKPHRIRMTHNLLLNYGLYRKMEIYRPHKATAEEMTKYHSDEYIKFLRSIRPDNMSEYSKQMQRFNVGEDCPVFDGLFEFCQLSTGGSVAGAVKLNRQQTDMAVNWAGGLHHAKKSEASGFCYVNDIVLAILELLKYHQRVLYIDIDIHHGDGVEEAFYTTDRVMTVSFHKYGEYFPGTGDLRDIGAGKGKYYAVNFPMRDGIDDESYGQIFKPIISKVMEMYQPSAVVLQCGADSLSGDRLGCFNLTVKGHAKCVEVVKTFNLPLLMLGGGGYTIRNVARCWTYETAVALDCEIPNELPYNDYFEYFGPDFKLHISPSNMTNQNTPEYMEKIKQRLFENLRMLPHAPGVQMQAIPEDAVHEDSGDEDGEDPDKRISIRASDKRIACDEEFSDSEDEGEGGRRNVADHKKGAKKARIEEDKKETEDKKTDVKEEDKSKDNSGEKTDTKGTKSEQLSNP
Chain of Histone deacetylase 1 (Q13547 whole entry): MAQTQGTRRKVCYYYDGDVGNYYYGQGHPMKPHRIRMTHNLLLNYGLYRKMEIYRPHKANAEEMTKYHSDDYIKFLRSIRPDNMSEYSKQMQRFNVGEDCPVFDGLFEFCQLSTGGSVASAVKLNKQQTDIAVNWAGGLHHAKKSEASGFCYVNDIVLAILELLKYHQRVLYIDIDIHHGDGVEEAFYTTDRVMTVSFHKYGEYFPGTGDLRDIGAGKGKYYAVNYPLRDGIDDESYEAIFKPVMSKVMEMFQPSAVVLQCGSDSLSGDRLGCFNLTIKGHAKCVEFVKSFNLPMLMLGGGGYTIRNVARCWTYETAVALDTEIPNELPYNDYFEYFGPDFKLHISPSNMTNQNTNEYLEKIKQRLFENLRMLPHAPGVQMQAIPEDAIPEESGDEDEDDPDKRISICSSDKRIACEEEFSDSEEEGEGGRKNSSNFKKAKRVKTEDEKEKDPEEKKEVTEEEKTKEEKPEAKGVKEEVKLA

Structure (SMILES) | pIC50 [1] | pIC50 [2] | pIC50 [3] | pIC50 [4] | pIC50 [5] | AUC [6] [ng·h/mL] | F [7] [%] | Cmax [8] [ng/mL]
CCCNNC(=O)c1ccc(CNC(=O)c2cc3cc(OC)ccc3o2)cc1 | 7.58 | < 5.00 | 7.28 | 9.55 | 8.13 | – | – | –
C=CCOc1ccc2oc(C(=O)NCc3ccc(C(=O)NNCCC)cc3)cc2c1 | 7.45 | < 5.00 | 7.27 | 9.07 | 7.93 | – | – | –
CCCNNC(=O)c1ccc(CNC(=O)c2ccc3cnccc3c2)cc1 | 7.40 | < 5.00 | 7.19 | 8.99 | 7.77 | – | – | –
CCCNNC(=O)c1ccc(CNC(=O)c2cc3ccccc3o2)cc1 | 7.82 | < 5.00 | – | 9.42 | 8.45 | – | – | –
CCCNNC(=O)c1ccc(CNC(=O)c2cc3cc(Cl)ccc3[nH]2)cc1 | 7.34 | < 5.00 | 7.42 | 9.18 | 7.86 | – | – | –
CCCNNC(=O)c1ccc(CNC(=O)c2nc3ccccc3[nH]2)cc1 | 7.48 | < 5.00 | 7.27 | 8.84 | 7.95 | – | – | –
CCCNNC(=O)c1ccc(CNC(=O)c2cc3cc(O)ccc3o2)cc1 | 7.79 | < 5.00 | 7.40 | 9.29 | 8.41 | – | – | –
CCCNNC(=O)c1ccc(CNC(=O)c2cc3cc(F)ccc3[nH]2)cc1 | 7.28 | < 5.00 | 7.04 | 8.79 | 7.89 | – | – | –
CCCNNC(=O)c1ccc(CNC(=O)c2cc3cc(F)ccc3o2)cc1 | 7.55 | < 5.00 | 7.25 | 9.08 | 8.09 | – | – | –
CCCNNC(=O)c1ccc(CNC(=O)c2cc3cc(OC)ccc3[nH]2)cc1 | 7.79 | < 5.00 | 7.43 | 9.24 | 8.33 | – | – | –
CCCNNC(=O)/C=C/c1ccc(CNCCc2c(C)[nH]c3ccccc23)cc1 | – | < 5.00 | – | – | – | 265 | 19.8 | 45.1
CCCNNC(=O)c1ccc(CNC(=O)c2cc3cc(Br)ccc3o2)cc1 | 7.62 | < 5.00 | 6.80 | 9.21 | 8.11 | – | – | –
